Test results as given in PMC10253817, “Design, Pharmacological Characterization, and Molecular Docking of Minimalist Peptidomimetic Antagonists of α4β1 Integrin” (International Journal of Molecular Sciences, 2023).

Target: T1, α4β1 integrin (Homo sapiens, UniProt P05556+P13612)
T1 construct: Jurkat E6.1 cell line, which endogenously expresses α4β1 integrin; host or cells: Jurkat E6.1
Experiment: α4β1 integrin-mediated Jurkat E6.1 cell adhesion to FN
Type: cell-based
Settings: Jurkat E6.1 cell adhesion to FN (10 μg/mL); antag. = reduced cell adhesion; mean ± SD
Protocol: To investigate the ability of the new peptides to modulate integrin-mediated cell adhesion, we employed cell adhesion assays using a Jurkat E6.1 cell line, which endogenously expresses α4β1 integrin and the natural ligand FN. […] On the contrary, ligands able to increase cell adhesion are defined as agonists.
The assays were performed as previously described. Briefly, regarding adhesion assays on Jurkat E6.1 or HL-60 cells, black 96-well plates (Corning Costar) were coated overnight at 4 °C with FN or Fg (10 μg/mL) or VCAM-1 (2 μg/mL) in order to investigate α4β1 integrin-mediated cell adhesion. To avoid any kind of unspecific binding, plates were incubated with 100 μL/well of blocking solution (1% BSA in HBSS) for 30 min at 37 °C. Cells were counted, stained with the CellTracker green CMFDA (12.5 μM, 30 min at 37 °C, Life Technologies Italia, Milan, Italy) and after three washes, were preincubated with increasing concentrations of new compounds (10^−10–10^−4 M) or with the vehicle (methanol) for 30 min at 37 °C.
Then, cells were plated (500,000/well) on coated wells and incubated for 30 min at 37 °C. Afterwards nonadherent cells were removed via washing with a blocking solution, and the remaining adhered cells were lysed with 0.5% Triton X-100 in PBS (30 min at 4 °C). Green fluorescence was measured (Ex485 nm/Em535 nm) using an EnSpire Multimode Plate Reader (PerkinElmer, Waltham, MA, USA).
In both types of adhesion assay, the number of adherent cells was determined via comparison with a standard curve made in the same plate. Experiments were carried out in quadruplicate and repeated at least three times. Data analysis and EC50 or IC50 values were calculated using GraphPad Prism 9.5.1 (GraphPad Software, San Diego, CA, USA).

T1 sequence (P13612 34-1032): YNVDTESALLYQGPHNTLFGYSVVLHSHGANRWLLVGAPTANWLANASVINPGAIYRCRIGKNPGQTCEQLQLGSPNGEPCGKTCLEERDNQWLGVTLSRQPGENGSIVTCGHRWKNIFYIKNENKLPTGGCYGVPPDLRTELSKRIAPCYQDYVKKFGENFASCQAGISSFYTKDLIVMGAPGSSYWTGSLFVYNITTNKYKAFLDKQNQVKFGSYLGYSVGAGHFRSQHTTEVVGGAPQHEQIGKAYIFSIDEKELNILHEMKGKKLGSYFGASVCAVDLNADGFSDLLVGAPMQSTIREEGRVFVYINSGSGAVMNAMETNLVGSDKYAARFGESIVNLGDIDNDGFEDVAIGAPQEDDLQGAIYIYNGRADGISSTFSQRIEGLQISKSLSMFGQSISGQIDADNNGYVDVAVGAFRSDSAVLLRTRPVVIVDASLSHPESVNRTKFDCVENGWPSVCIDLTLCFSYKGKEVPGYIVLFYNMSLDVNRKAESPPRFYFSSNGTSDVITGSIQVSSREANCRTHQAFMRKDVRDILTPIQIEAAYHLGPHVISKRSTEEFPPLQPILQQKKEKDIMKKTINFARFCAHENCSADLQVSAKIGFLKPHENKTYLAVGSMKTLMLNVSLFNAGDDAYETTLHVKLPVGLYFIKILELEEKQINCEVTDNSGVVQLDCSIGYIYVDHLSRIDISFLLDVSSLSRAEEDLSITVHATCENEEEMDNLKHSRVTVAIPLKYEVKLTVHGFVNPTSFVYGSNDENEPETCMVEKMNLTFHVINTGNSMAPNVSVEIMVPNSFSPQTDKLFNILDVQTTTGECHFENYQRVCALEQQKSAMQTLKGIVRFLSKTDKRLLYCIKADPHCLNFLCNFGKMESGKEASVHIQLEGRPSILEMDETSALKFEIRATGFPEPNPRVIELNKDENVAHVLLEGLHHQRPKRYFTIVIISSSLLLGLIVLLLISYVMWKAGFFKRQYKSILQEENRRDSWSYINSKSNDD
T1 sequence (P05556 21-798): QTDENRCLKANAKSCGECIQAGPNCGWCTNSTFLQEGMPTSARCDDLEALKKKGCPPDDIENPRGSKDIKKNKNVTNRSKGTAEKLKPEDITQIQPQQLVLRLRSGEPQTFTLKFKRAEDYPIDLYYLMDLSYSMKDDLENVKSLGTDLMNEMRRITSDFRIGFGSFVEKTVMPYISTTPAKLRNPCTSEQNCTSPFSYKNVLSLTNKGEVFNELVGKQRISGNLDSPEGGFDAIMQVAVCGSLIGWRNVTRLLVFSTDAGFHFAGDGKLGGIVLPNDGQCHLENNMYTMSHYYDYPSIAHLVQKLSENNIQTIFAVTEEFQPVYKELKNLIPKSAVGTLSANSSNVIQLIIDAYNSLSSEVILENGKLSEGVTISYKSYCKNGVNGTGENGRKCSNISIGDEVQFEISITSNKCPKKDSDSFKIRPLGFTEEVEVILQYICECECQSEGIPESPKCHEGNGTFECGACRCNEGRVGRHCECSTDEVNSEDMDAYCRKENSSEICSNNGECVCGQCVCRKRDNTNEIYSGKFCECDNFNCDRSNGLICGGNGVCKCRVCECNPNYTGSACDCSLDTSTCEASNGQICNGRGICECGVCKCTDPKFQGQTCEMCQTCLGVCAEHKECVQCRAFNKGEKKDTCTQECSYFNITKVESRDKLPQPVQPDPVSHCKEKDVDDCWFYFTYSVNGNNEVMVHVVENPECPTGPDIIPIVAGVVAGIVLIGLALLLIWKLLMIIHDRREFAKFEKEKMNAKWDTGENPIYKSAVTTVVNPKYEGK

IC50: 416 nM
SMILES: Cc1ccccc1NC(=O)Nc1ccc(CNC(=O)C[C@@H](C)NC(=O)CC(=O)O)cc1 [compound 13]
